Measured values reported in DBAASP.
≈ marks a conversion by molar mass, not a printed value. Where “and” joins values, the source holds several entries; their conditions need not be identical. Equal entries are not always repeated. Each block holds one molecule with its values, some of them ahead of it.

Columns and labels:
Experiment in all cases: ≥ marks a high value that may be exact or a test limit, other limits are often not marked, values filed in µg/mL are converted to µM
[1] = system: Listeria monocytogenes LO28
[2] = system: Cronobacter sakazakii DPC 6440
[3] = system: Neisseria gonorrhoeae FA19
[4] = system: Neisseria gonorrhoeae F62
[5] = system: Candida albicans ATCC 200955
[6] = system: Pseudomonas aeruginosa ATCC 27853
[7] = system: Escherichia coli ATCC 25922
[8] = system: Staphylococcus aureus ATCC 33591
[9] = system: Enterococcus faecium ATCC 700221
[10] = system: Bacillus cereus PTCC 1247
[11] = system: Klebsiella pneumoniae PTCC 1388
[12] = system: Escherichia coli HP101BA 7601c
[13] = system: Staphylococcus aureus PTCC 1431
[14] = system: Pseudomonas syringae pv. tomato DC3000
[15] = system: Staphylococcus aureus 90857
[16] = system: Pseudomonas syringae pv. syringae DSM 10604
[17] = system: Pectobacterium carotovorum subsp. carotovorum DSM 30168
[18] = system: Xanthomonas vesicatoria DSM 50861
[19] = system: Pseudomonas corrugata DSM 7228
[20] = system: Clavibacter michiganensis subsp. michiganensis DSM 46294
[21] = system: Staphylococcus aureus ATCC 25023
[22] = system: Escherichia coli ATCC 35218
[23] = system: Staphylococcus aureus ATCC 25325
[24] = system: Enterococcus faecalis ATCC 29212
[25] = system: Staphylococcus epidermidis PIA 8400
[26] = system: Staphylococcus aureus ATCC 29213
[27] = system: Staphylococcus epidermidis ATCC 12228
Vibrio cholerae non-O139 = system: Vibrio cholerae non-O139
Vibrio cholerae non-O1 = system: Vibrio cholerae non-O1
[28] = system: Staphylococcus aureus ATCC 25923
[29] = system: Salmonella enterica subsp. enterica serovar Typhi DMST 22842
Vibrio vulnificus 204 = system: Vibrio vulnificus 204
Vibrio alginolyticus = system: Vibrio alginolyticus
Streptococcus agalactiae = system: Streptococcus agalactiae
[30] = system: Vibrio harveyi BCRC 13812
Pseudomonas aeruginosa = system: Pseudomonas aeruginosa
[31] = system: Streptococcus pneumoniae BCRC 10794
Staphylococcus aureus = system: Staphylococcus aureus
[32] = system: Micrococcus luteus BCRC 11034
[33] = system: Staphylococcus aureus BCRC 10780
[34] = system: Staphylococcus sp. BCRC 10451

MIC [1]: 19.5 µM (≈ 36.6 µg/mL) | MIC [2]: ≥ 39.1 µM
Compound: CC[C@H](C)[C@H](NC(=O)[C@@H](N)Cc1c[nH]c2ccccc12)C(=O)N[C@@H](CCC(N)=O)C(=O)N1CCC[C@H]1C(=O)N[C@@H](CCCCN)C(=O)N[C@H](C(=O)N[C@@H](CCCCN)C(=O)N[C@H](C(=O)N[C@H](C(=O)N1CCC[C@H]1C(=O)N[C@@H](Cc1ccc(O)cc1)C(=O)N[C@@H](C)C(=O)N[C@@H](CCCN=C(N)N)C(=O)N[C@@H](Cc1ccc(O)cc1)C(=O)N[C@@H](CC(C)C)C(=O)O)[C@@H](C)CC)C(C)C)[C@@H](C)O [WIQPKTKVIPYARYL]

MIC [10]: 4.6 µM (≈ 12 µg/mL) | MIC [11]: 5.36 µM (≈ 14 µg/mL) | MIC [12]: 3.06 µM (≈ 7.99 µg/mL) | MIC [13]: 6.51 µM (≈ 17 µg/mL)
Compound: CC[C@H](C)[C@H](NC(=O)[C@H](Cc1cnc[nH]1)NC(=O)[C@H](CCC(N)=O)NC(=O)[C@H](CCSC)NC(=O)[C@H](CCSC)NC(=O)[C@H](CCC(=O)O)NC(=O)[C@H](C)NC(=O)[C@H](C)NC(=O)[C@@H](NC(=O)[C@H](CO)NC(=O)[C@H](C)NC(=O)[C@@H](NC(=O)[C@H](Cc1ccccc1)NC(=O)[C@@H]1CCCN1C(=O)[C@@H](NC(=O)[C@@H](N)C(C)C)[C@@H](C)CC)C(C)C)C(C)C)C(=O)N[C@@H](Cc1ccccc1)C(=O)N[C@H]1CSSC[C@@H](C(=O)O)NC(=O)[C@H](CCCCN)NC(=O)[C@H](CCCN=C(N)N)NC(=O)[C@H](CO)NC(=O)[C@H](C)NC(=O)[C@H](C)NC1=O [VIPFVASVAAEMMQHIFCAASRKC]

MIC [22]: 16.1 µM (≈ 24.4 µg/mL) | MIC [23]: 20.2 µM (≈ 30.6 µg/mL) | MIC [6]: 29.5 µM (≈ 44.7 µg/mL)
Compound: CC(C)C[C@H](NC(=O)[C@H](C)NC(=O)[C@H](C)NC(=O)[C@H](CCCCN)NC(=O)CNC(=O)[C@@H](NC(=O)[C@H](Cc1cnc[nH]1)NC(=O)[C@H](CCCCN)NC(=O)CNC(=O)[C@@H](NC(=O)[C@H](Cc1cnc[nH]1)NC(=O)[C@H](C)NC(=O)[C@H](C)NC(=O)[C@H](CCCCN)NC(=O)[C@@H](N)CCCCN)C(C)C)C(C)C)C(=O)O [KKAAHVGKHVGKAAL]

MIC (Vibrio vulnificus 204): 18 µM (≈ 50.7 µg/mL) | MIC (Vibrio alginolyticus): 4.5 µM (≈ 12.7 µg/mL) | MIC (Streptococcus agalactiae): 18 µM (≈ 50.7 µg/mL) | MIC [30]: 4.5 µM (≈ 12.7 µg/mL) | MIC (Pseudomonas aeruginosa): 4.5 µM (≈ 12.7 µg/mL) | MIC [31]: 18 µM (≈ 50.7 µg/mL) | MIC (Staphylococcus aureus): 4.5 µM (≈ 12.7 µg/mL) | MIC [32]: 9 µM (≈ 25.4 µg/mL) | MIC [33]: 18 µM (≈ 50.7 µg/mL) | MIC [34]: 2.25 µM (≈ 6.34 µg/mL)
Compound: CC[C@H](C)[C@H](NC(=O)[C@H](CCCCN)NC(=O)[C@@H]1CCCN1C(=O)[C@@H](NC(=O)[C@H](CC(C)C)NC(=O)[C@H](C)NC(=O)[C@H](Cc1ccccc1)NC(=O)[C@H](Cc1ccccc1)NC(=O)CNC(C)=O)[C@@H](C)CC)C(=O)N[C@H](C(=O)N[C@@H](CO)C(=O)N[C@@H](CO)C(=O)N1CCC[C@H]1C(=O)N[C@@H](CC(C)C)C(=O)N[C@@H](Cc1ccccc1)C(=O)N[C@@H](CCCCN)C(=O)N[C@H](C(=O)N[C@@H](CC(C)C)C(=O)N[C@@H](CC(C)C)C(=O)N[C@@H](CO)C(=O)N[C@@H](C)C(=O)N[C@H](C(=O)NCC(=O)N[C@@H](CO)C(=O)N[C@@H](C)C(=O)N[C@@H](CC(C)C)C(=O)N[C@@H](CO)C(N)=O)C(C)C)[C@@H](C)O)[C@@H](C)CC [GFFALIPKIISSPLFKTLLSAVGSALS]

Second part, the molecule before the results:

Compound: CC(C)C[C@H](NC(=O)[C@H](CCCNC(=N)N)NC(=O)CNC(=O)CNC(=O)[C@@H](N)CCCNC(=N)N)C(=O)N[C@H]1CSSC[C@@H](C(N)=O)NC(=O)[C@H](C(C)C)NC(=O)[C@@H]2CSSC[C@H](NC(=O)[C@H](Cc3ccc(O)cc3)NC1=O)C(=O)N[C@@H](CCCNC(=N)N)C(=O)N[C@@H](CCCNC(=N)N)C(=O)N[C@@H](CCCNC(=N)N)C(=O)N[C@@H](Cc1ccccc1)C(=O)N2 [RGGRLCYCRRRFCVC]
MIC [3]: 4.11 µM (≈ 7.58 µg/mL) | MIC [4]: 0.58 µM (≈ 1.07 µg/mL)

Compound: CC[C@H](C)[C@H](NC(=O)[C@H](CCCCN)NC(=O)[C@H](CCCCN)NC(=O)[C@H](CC(C)C)NC(=O)[C@H](CC(C)C)NC(=O)CN)C(=O)N[C@@H](CCCCN)C(=O)N[C@@H](CCCCN)C(=O)N[C@@H](CC(C)C)C(=O)N[C@@H](CC(C)C)C(N)=O [GLLKKIKKLL]
MIC [5]: 28.4 µM (≈ 32.7 µg/mL) | MIC [6]: 28.4 µM (≈ 32.7 µg/mL) | MIC [7]: 25 µM (≈ 28.8 µg/mL) | MIC [8]: ≥ 256 µM | MIC [9]: ≥ 56.9 µM

Compound: CC[C@H](C)[C@H](NC(=O)[C@H](CC(C)C)NC(=O)[C@H](CCCCN)NC(=O)[C@H](CCCCN)NC(=O)[C@H](CC(C)C)NC(=O)[C@@H](NC(=O)[C@H](CCCCN)NC(=O)[C@H](CCCCN)NC(=O)[C@@H](NC(=O)[C@@H](NC(=O)[C@H](CCCN=C(N)N)NC(=O)[C@@H](N)CC(C)C)[C@@H](C)CC)[C@@H](C)CC)[C@@H](C)CC)C(N)=O [LRIIKKILKKLI]
MIC [14]: 0.169 µM (≈ 0.25 µg/mL) | MIC [15]: 3 µM (≈ 4.43 µg/mL) | MIC [16]: 0.338 µM (≈ 0.5 µg/mL) | MIC [17]: 1.69 µM (≈ 2.5 µg/mL) | MIC [18]: 0.169 µM (≈ 0.25 µg/mL) | MIC [19]: 0.338 µM (≈ 0.5 µg/mL) | MIC [20]: 0.338 µM (≈ 0.5 µg/mL)

Compound: CC(C)C[C@H](NC(=O)[C@H](CCCN=C(N)N)NC(=O)[C@H](CC(C)C)NC(=O)[C@H](CC(C)C)NC(=O)[C@H](CC(C)C)NC(=O)[C@H](CC(C)C)NC(=O)[C@H](CC(C)C)NC(=O)[C@H](CCCCN)NC(=O)[C@H](CCCN=C(N)N)NC(=O)[C@@H](N)CC(C)C)C(N)=O [LRKLLLLLRL]
MIC [21]: 25.6 µM (≈ 32 µg/mL)

Compound: CC[C@H](C)[C@H](NC(=O)[C@H](Cc1c[nH]c2ccccc12)NC(=O)[C@@H](NC(=O)[C@@H](NC(=O)[C@H](Cc1c[nH]c2ccccc12)NC(=O)[C@H](CCCCN)NC(=O)[C@H](CCCCN)NC(=O)[C@@H](NC(=O)[C@@H](N)CCCN=C(N)N)[C@@H](C)O)[C@@H](C)CC)C(C)C)C(N)=O [RTKKWIVWI]
MIC [24]: 55.3 µM and 110 µM | MIC [25]: 13.8 µM (≈ 17 µg/mL) | MIC [26]: 27.7 µM (≈ 34 µg/mL) | MIC [7]: 13.8 µM (≈ 17 µg/mL)

Compound: NC(=O)[C@H](Cc1c[nH]c2ccccc12)NC(=O)[C@H](Cc1c[nH]c2ccccc12)NC(=O)[C@H](Cc1c[nH]c2ccccc12)NC(=O)[C@H](CCCN=C(N)N)NC(=O)[C@H](CCCN=C(N)N)NC(=O)[C@H](Cc1c[nH]c2ccccc12)NC(=O)[C@H](Cc1c[nH]c2ccccc12)NC(=O)[C@H](CCCN=C(N)N)NC(=O)[C@H](Cc1c[nH]c2ccccc12)NC(=O)[C@H](Cc1c[nH]c2ccccc12)NC(=O)[C@@H](N)CCCN=C(N)N [RWWRWWRRWWW]
MIC [27]: > 46.8 µM | MIC (Vibrio cholerae non-O139): ≥ 46.8 µM | MIC (Vibrio cholerae non-O1): ≥ 46.8 µM | MIC [28]: > 46.8 µM | MIC [29]: ≥ 46.8 µM
